From patent US6635771B2, “N-benzhydryl indole compounds” (Wyeth, priority 2001, dated 2003)
pIC50: −log10 of the molar value.

Molecular target: T1, cPLA2 (Homo sapiens, UniProt P47712)
T1 sequence (P47712 1-749): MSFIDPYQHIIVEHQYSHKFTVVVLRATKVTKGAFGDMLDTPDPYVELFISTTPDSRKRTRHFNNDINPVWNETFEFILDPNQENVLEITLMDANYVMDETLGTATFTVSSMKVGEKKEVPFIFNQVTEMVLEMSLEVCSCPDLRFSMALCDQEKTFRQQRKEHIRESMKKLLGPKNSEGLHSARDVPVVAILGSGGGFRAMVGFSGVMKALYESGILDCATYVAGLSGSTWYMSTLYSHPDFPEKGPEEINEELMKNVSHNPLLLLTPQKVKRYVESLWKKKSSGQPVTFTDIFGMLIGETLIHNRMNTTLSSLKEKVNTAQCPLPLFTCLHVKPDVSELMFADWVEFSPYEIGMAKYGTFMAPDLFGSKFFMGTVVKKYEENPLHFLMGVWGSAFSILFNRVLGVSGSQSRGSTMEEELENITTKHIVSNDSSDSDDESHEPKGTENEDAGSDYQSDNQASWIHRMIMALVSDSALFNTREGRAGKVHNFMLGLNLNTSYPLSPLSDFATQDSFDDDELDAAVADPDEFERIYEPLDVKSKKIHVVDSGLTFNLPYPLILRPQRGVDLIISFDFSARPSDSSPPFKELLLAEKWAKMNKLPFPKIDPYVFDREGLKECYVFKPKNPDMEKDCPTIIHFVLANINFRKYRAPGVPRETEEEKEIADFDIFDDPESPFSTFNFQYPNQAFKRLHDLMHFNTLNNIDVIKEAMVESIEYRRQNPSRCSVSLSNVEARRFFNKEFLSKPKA
Assay: Coumarine Assay
Format: biochemical
Conditions: 60 μM 7-hydroxycoumarinyl 6-heptenoate substrate, 4 μg cPLA2, pH 7.5, fluorescence ex 360 nm / em 460 nm; read-out: Coumarin IC50
Description: Inhibitors were mixed with 200 μL assay buffer (80 mM Heped, pH 7.5, 1 mM EDTA) containing 60 μM 7-hydroxycoumarinyl 6-heptenoate. The reaction was initiated by adding 4 μg cPLA2 in 50 μL assay buffer. Hydrolysis of the 7-hydroxycounarimyl 6-heptenoate ester was monitored in a fluorometer by exciting at 360 nm and monitoring emission at 460 nm. Enzyme activity is proportional to the increase in emission at 460 nm per minute. In the presence of a cPLA2 inhibitor, the rate of increase is less.

Compound	pIC50
O=C(O)c1ccc(OCCc2c(CCNS(=O)(=O)Cc3c(Cl)cccc3Cl)n(C(c3ccccc3)c3ccccc3)c3ccc(Cl)cc23)cc1 [Example 73, 4-{2-[1-Benzhydryl-5-chloro-2-(2-{[(2-dichlorobenzyl)sulfonyl]amino}ethyl)-1H-indol-3-yl]ethoxy}benzoic acid]	6.52
O=C(O)c1ccc(OCCc2c(CCNS(=O)(=O)Cc3c(F)cccc3F)n(C(c3ccccc3)c3ccccc3)c3ccc(Cl)cc23)cc1 [Example 74]	6.55
O=C(O)c1ccc(OCCc2c(CCNS(=O)(=O)Cc3ccc(Cl)nc3)n(C(c3ccccc3)c3ccccc3)c3ccc(Cl)cc23)cc1 [Example 75, 4-(2-{1-benzhydryl-5-chloro-2-[2-({[(6-chloro-3-pyridinyl)methyl]sulfonyl}amino)ethyl]-1H-indol-3-yl}ethoxy)benzoic acid]	6.40
O=C(O)c1ccc(OCCc2c(CCNS(=O)(=O)Cc3ccc(Cl)c(Cl)n3)n(C(c3ccccc3)c3ccccc3)c3ccc(Cl)cc23)cc1 [Example 76]	6.40
COc1cccc(CS(=O)(=O)NCCc2c(CCOc3ccc(C(=O)O)cc3)c3cc(Cl)ccc3n2C(c2ccccc2)c2ccccc2)c1 [Example 77, 4-{2-[1-Benzhydryl-5chloro-2-(2-{[(3-methoxybenzyl)sulfonyl]amino}ethyl)-1H-indol-3-yl]ethoxy}benzoic acid]	6.32
Cc1cc(C)cc(CS(=O)(=O)NCCc2c(CCOc3ccc(C(=O)O)cc3)c3cc(Cl)ccc3n2C(c2ccccc2)c2ccccc2)c1 [Example 78, 4-{2-[1-Benzhydryl-5-chloro-2-(2-{[(3,5-dimethylbenzyl)sulfonyl]amino}ethyl)-1H-indol-3-yl]ethoxy)benzoic acid]	6.47
Cc1ccccc1CS(=O)(=O)NCCc1c(CCOc2ccc(C(=O)O)cc2)c2cc(Cl)ccc2n1C(c1ccccc1)c1ccccc1 [Example 79, 4-{2-[1-Benzhydryl-5-chloro-2-(2-{[(2-methylbenzyl)sulfonyl]amino}ethyl)-1H-indol3-yl]ethoxy}benzoic acid]	6.82
O=C(O)c1ccc(OCCc2c(CCNS(=O)(=O)Cc3c(Cl)cccc3Cl)n(C(c3ccccc3)c3ccccc3)c3ccc(Cl)cc23)cc1 [Example 80, 4-{2-[1-Benzhydryl-5-chloro-2-(2-{[(2,6-dichlorobenzyl)sulfonyl]amino}ethyl)-1H-indol-3-yl]ethoxy}benzoic acid]	5.43
O=C(O)c1ccc(OCCc2c(CCNS(=O)(=O)CSc3ccccc3)n(C(c3ccccc3)c3ccccc3)c3ccc(Cl)cc23)cc1 [Example 81, 4-(2-{1-benzhydryl-5-chloro-2-[2-({[(phenylsulfanyl)methyl]sulfonyl}amino)ethyl]-1H-indol-3-yl}ethoxy)benzoic acid]	6.33
Cc1cccc(C)c1SCS(=O)(=O)NCCc1c(CCOc2ccc(C(=O)O)cc2)c2cc(Cl)ccc2n1C(c1ccccc1)c1ccccc1 [Example 82]	6.30
COc1ccccc1SCS(=O)(=O)NCCc1c(CCOc2ccc(C(=O)O)cc2)c2cc(Cl)ccc2n1C(c1ccccc1)c1ccccc1 [Example 83]	6.35
Cc1cccc(Cl)c1SCS(=O)(=O)NCCc1c(CCOc2ccc(C(=O)O)cc2)c2cc(Cl)ccc2n1C(c1ccccc1)c1ccccc1 [Example 84]	6.30
O=C(O)c1ccc(OCCc2c(CCNS(=O)(=O)CSc3cc(Cl)cc(Cl)c3)n(C(c3ccccc3)c3ccccc3)c3ccc(Cl)cc23)cc1 [Example 85]	6.40
COc1ccc(SCS(=O)(=O)NCCc2c(CCOc3ccc(C(=O)O)cc3)c3cc(Cl)ccc3n2C(c2ccccc2)c2ccccc2)cc1OC [Example 86]	6.22
O=C(O)c1ccc(OCCc2c(CCNS(=O)(=O)CCN3CCOCC3)n(C(c3ccccc3)c3ccccc3)c3ccc(Cl)cc23)cc1 [Example 87, 4-(2-{1-Benzhydryl-5-chloro-2-[2-(2-morpholin-4-ylethanesulfonylamino)-ethyl]-1H-indol-3-yl}-ethoxy)-benzoic acid]	5.92
O=C(O)c1ccc(OCCc2c(CCNS(=O)(=O)CCNc3ccccc3)n(C(c3ccccc3)c3ccccc3)c3ccc(Cl)cc23)cc1 [Example 89, 4-(2-{1-Benzhydryl-5-chloro-2-[2-(2-phenylamino-ethanesulfonylamino)-ethyl]-1H-indol-3-yl}-ethoxy)-benzoic acid]	6.42
O=C(O)c1ccc(OCCc2c(CCNS(=O)(=O)CCN3CCC4(CC3)OCCO4)n(C(c3ccccc3)c3ccccc3)c3ccc(Cl)cc23)cc1 [Example 90, 4-(2-{1-benzhydryl-5-chloro-2-[2-({[2-(1,4-dioxa-8-azaspiro[4.5]dec-8-yl)ethyl]sulfonyl}amino)ethyl]-1H-indol-3-yl}ethoxy)benzoic acid]	6.19
O=C(O)c1ccc(OCCc2c(CCNS(=O)(=O)CCN3CCN(c4ccccn4)CC3)n(C(c3ccccc3)c3ccccc3)c3ccc(Cl)cc23)cc1 [Example 91, 4-[2-(1-benzhydryl-5-chloro-2-{2-[({2-[4-(2-pyridinyl)-1-piperazinyl]ethyl}sulfonyl)amino]ethyl}-1H-indol-3-yl)ethoxy]benzoic acid]	6.30
Cc1cc(C)n(CCS(=O)(=O)NCCc2c(CCOc3ccc(C(=O)O)cc3)c3cc(Cl)ccc3n2C(c2ccccc2)c2ccccc2)n1 [Example 93, 4-(2-{1-benzhydryl-5-chloro-2-[2-({[2-(3,5-dimethyl-1H-pyrazol-1-yl)ethyl]sulfonyl}amino)ethyl]-1H-indol-3-yl}ethoxy)benzoic acid]	6.25
Cc1ccn(CCS(=O)(=O)NCCc2c(CCOc3ccc(C(=O)O)cc3)c3cc(Cl)ccc3n2C(c2ccccc2)c2ccccc2)n1 [Example 94, 4-(2-{1-benzhydryl-5-chloro-2-[2-({[2-(3-methyl-1H-pyrazol-1-yl)ethyl]sulfonyl}amino)ethyl]-1H-indol-3-yl}ethoxy)benzoic acid]	6.10
Cc1cnn(CCS(=O)(=O)NCCc2c(CCOc3ccc(C(=O)O)cc3)c3cc(Cl)ccc3n2C(c2ccccc2)c2ccccc2)c1 [Example 95, 4-(2-{1-benzhydryl-5-chloro-2-[2-({[2-(4-methyl-1H-pyrazol-1-yl)ethyl]sulfonyl}amino)ethyl]-1H-indol-3-yl}ethoxy)benzoic acid]	6.07
C[C@@H]1CCC[C@H](C)N1CCS(=O)(=O)NCCc1c(CCOc2ccc(C(=O)O)cc2)c2cc(Cl)ccc2n1C(c1ccccc1)c1ccccc1 [Example 96, 4-[2-(1-benzhydryl-5-chloro-2-{2-[({2-[(2R,6S)-2,6-dimethyl-1-piperidinyl]ethyl}sulfonyl)amino]ethyl}-1H-indol-3-yl)ethoxy]benzoic acid]	6.02
O=C(O)c1ccc(OCCc2c(CCNS(=O)(=O)CCN3CCNC3=S)n(C(c3ccccc3)c3ccccc3)c3ccc(Cl)cc23)cc1 [Example 97, 4-(2-{1-benzhydryl-5-chloro-2-[2-({[2-(2-thioxo-1-imidazolidinyl)ethyl]sulfonyl}amino)ethyl]-1H-indol-3-yl}ethoxy)benzoic acid]	6.02
O=C(O)c1ccc(CCCc2c(CCNS(=O)(=O)CCN3CCOCC3)n(C(c3ccccc3)c3ccccc3)c3ccc(Cl)cc23)cc1 [Example 100, 4-(3-{1-Benzhydryl-5-chloro-2-[2-(2-morpholin-4-yl-ethanesulfonylamino)-ethyl]-1H-indol-3-yl}-propyl)-benzoic acid]	6.92
